In the supplement of paper PMC10307832:

Columns and labels:
Assay in all cases: relative viability (nuclei count vs DMSO), 5 days (fraction); higher = more cells survive
[1] = compound: O=C(CCCCCCC(=O)Nc1ccccc1)NO [Vorinostat] + CC(=O)Nc1cccc(-n2c(=O)n(C3CC3)c(=O)c3c(Nc4ccc(I)cc4F)n(C)c(=O)c(C)c32)c1 [Trametinib] (partner 0.02 µM)
Outline: (§1)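 Lung cancer cell lines, seeded in 1536-well plates, were treated the following day by pin tool with a single drug or with five library-drug doses (not always all listed) in √10 steps on top of a fixed anchor-drug dose. Cells were fixed and nuclei stained in one step after 5 days, and nuclei were counted. Relative viability is the nuclei count for treated wells divided by that for vehicle wells, reported as medians of duplicate plates.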

[2] = compound: O=C(CCCCCCC(=O)Nc1ccccc1)NO [Vorinostat] + COc1cc2c(Oc3ccc(NC(=O)C4(C(=O)Nc5ccc(F)cc5)CC4)cc3F)ccnc2cc1OCCCN1CCOCC1 [Foretinib] (partner 0.25 µM)
Outline: as §1

[3] = compound: O=C(CCCCCCC(=O)Nc1ccccc1)NO [Vorinostat] + Cc1cc(Nc2cc(N3CCN(C)CC3)nc(Sc3ccc(NC(=O)C4CC4)cc3)n2)n[nH]1 [Tozasertib] (partner 0.1 µM)
Outline: as §1

[4] = compound: O=C(CCCCCCC(=O)Nc1ccccc1)NO [Vorinostat] + Cc1nc(NC(=O)N2CCC[C@H]2C(N)=O)sc1-c1ccnc(C(C)(C)C(F)(F)F)c1 [Alpelisib] (partner 2 µM)
Outline: as §1

[5] = compound: O=C(CCCCCCC(=O)Nc1ccccc1)NO [Vorinostat] + N=C(N)NC(=N)NCCc1ccccc1 [Phenformin] (partner 250 µM)
Outline: as §1

Row | Cell Line | relative viability ([1]; first compound 0.253 µM) | relative viability ([1]; first compound 0.8 µM) | relative viability ([1]; first compound 2.53 µM) | relative viability ([1]; first compound 8 µM) | relative viability ([2]; first compound 0.253 µM) | relative viability ([2]; first compound 0.8 µM) | relative viability ([2]; first compound 2.53 µM) | relative viability ([2]; first compound 8 µM) | relative viability ([3]; first compound 0.253 µM) | relative viability ([3]; first compound 0.8 µM) | relative viability ([3]; first compound 2.53 µM) | relative viability ([3]; first compound 8 µM) | relative viability ([4]; first compound 0.253 µM) | relative viability ([4]; first compound 0.8 µM) | relative viability ([4]; first compound 2.53 µM) | relative viability ([4]; first compound 8 µM) | relative viability ([5]; first compound 0.253 µM) | relative viability ([5]; first compound 0.8 µM) | relative viability ([5]; first compound 2.53 µM) | relative viability ([5]; first compound 8 µM)
1 | NCI-H1651 | 0.869 | 0.76 | 0.343 | 0.062 | 0.879 | 0.791 | 0.228 | 0.0797 | 0.609 | 0.326 | 0.153 | 0.0653 | 1.04 | 0.713 | 0.119 | 0.0787 | 0.408 | 0.326 | 0.0932 | 0.0635
2 | NCI-H1915 | 0.36 | 0.291 | 0.227 | 0.101 | 1.14 | 1.05 | 0.474 | 0.137 | 0.426 | 0.267 | 0.118 | 0.104 | 1.16 | 1 | 0.4 | 0.0675 | 0.38 | 0.341 | 0.181 | 0.0949
3 | UMC-11 | 0.845 | 0.245 | 0.0839 | 0.0678 | 1.12 | 0.465 | 0.121 | 0.103 | 0.195 | 0.164 | 0.147 | 0.129 | 1.02 | 0.852 | 0.221 | 0.0659 | 0.325 | 0.199 | 0.123 | 0.115
4 | NCI-H358 | 0.171 | 0.149 | 0.0954 | 0.0859 | 1.01 | 0.649 | 0.154 | 0.0783 | 0.128 | 0.11 | 0.0949 | 0.0726 | 1.05 | 0.939 | 0.226 | 0.177 | 0.5 | 0.47 | 0.115 | 0.082
5 | NCI-H650 | 1.24 | 0.839 | 0.243 | 0.111 | 0.998 | 0.907 | 0.213 | 0.151 | 0.686 | 0.421 | 0.154 | 0.136 | 1.43 | 0.933 | 0.191 | 0.146 | 0.483 | 0.375 | 0.256 | 0.14
6 | NCI-H2228 | 0.67 | 0.464 | 0.219 | 0.101 | 0.917 | 0.537 | 0.311 | 0.0906 | 0.199 | 0.103 | 0.0837 | 0.0871 | 0.945 | 0.461 | 0.184 | 0.113 | 0.388 | 0.27 | 0.136 | 0.102
7 | LU99A | 0.614 | 0.54 | 0.33 | 0.138 | 0.81 | 0.692 | 0.319 | 0.222 | 0.299 | 0.259 | 0.208 | 0.213 | 0.517 | 0.395 | 0.178 | 0.126 | 0.952 | 0.609 | 0.447 | 0.185
8 | NCI-H1666 | 0.894 | 0.805 | 0.561 | 0.439 | 0.982 | 0.906 | 0.387 | 0.349 | 0.499 | 0.346 | 0.307 | 0.259 | 0.962 | 0.586 | 0.245 | 0.156 | 0.591 | 0.474 | 0.398 | 0.306
9 | COR-L 105 | 0.546 | 0.542 | 0.343 | 0.288 | 1.27 | 0.996 | 0.915 | 0.246 | 0.458 | 0.331 | 0.245 | 0.213 | 1.37 | 0.783 | 0.249 | 0.184 | 0.609 | 0.54 | 0.199 | 0.234
10 | NCI-H520 | 0.959 | 0.549 | 0.212 | 0.124 | 0.965 | 0.791 | 0.555 | 0.179 | 0.422 | 0.37 | 0.207 | 0.209 | 1.02 | 0.588 | 0.487 | 0.139 | 0.717 | 0.482 | 0.374 | 0.164
11 | NCI-H2126 | 0.612 | 0.533 | 0.296 | 0.166 | 1.14 | 0.968 | 0.365 | 0.235 | 0.731 | 0.444 | 0.212 | 0.171 | 0.733 | 0.653 | 0.365 | 0.199 | 0.525 | 0.495 | 0.244 | 0.177
12 | PC-14 | 0.785 | 0.483 | 0.155 | 0.0461 | 1.15 | 1.04 | 0.62 | 0.0829 | 0.586 | 0.389 | 0.0619 | 0.018 | 1 | 0.903 | 0.263 | 0.0674 | 0.713 | 0.561 | 0.131 | 0.0278
13 | NCI-H2347 | 0.242 | 0.327 | 0.226 | 0.203 | 1.02 | 0.84 | 0.587 | 0.198 | 0.66 | 0.432 | 0.244 | 0.203 | 1.11 | 1.08 | 0.526 | 0.221 | 0.46 | 0.351 | 0.19 | 0.2
14 | NCI-H1975 | 0.395 | 0.311 | 0.123 | 0.106 | 0.962 | 0.838 | 0.295 | 0.108 | 0.762 | 0.484 | 0.118 | 0.077 | 0.696 | 0.528 | 0.189 | 0.133 | 0.431 | 0.381 | 0.197 | 0.127
15 | PC-3 [JPC-3] | 0.695 | 0.644 | 0.405 | 0.348 | 1.02 | 1.03 | 0.316 | 0.239 | 0.821 | 0.741 | 0.229 | 0.266 | 1.01 | 0.979 | 0.572 | 0.259 | 0.471 | 0.465 | 0.436 | 0.279
16 | EPLC-272H | 0.296 | 0.269 | 0.168 | 0.11 | 0.581 | 0.512 | 0.0722 | 0.133 | 0.289 | 0.249 | 0.189 | 0.149 | 0.928 | 0.893 | 0.396 | 0.175 | 0.321 | 0.332 | 0.104 | 0.084
17 | NCI-H647 | 0.642 | 0.497 | 0.164 | 0.0479 | 1.08 | 1.04 | 0.507 | 0.0683 | 0.279 | 0.183 | 0.078 | 0.0319 | 1.51 | 0.966 | 0.254 | 0.0332 | 0.594 | 0.208 | 0.0803 | 0.0343
18 | NCI-H661 | 0.767 | 0.614 | 0.303 | 0.301 | 1.11 | 0.843 | 0.447 | 0.298 | 0.342 | 0.262 | 0.249 | 0.269 | 1.23 | 1.09 | 0.491 | 0.171 | 0.38 | 0.3 | 0.213 | 0.268
